# Laboratory results published in PubChem BioAssay (NCI).
#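 These data come from cells grown in 96-well plates and exposed to compound for 48 hours at five concentrations. TGI denotes the concentration required for complete inhibition of growth.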
# What was measured:
# Assay in all cases: growth of human tumour cells (NCI), 48 h
# PC-3 prostate = system: PC-3 prostate
# SR leukemia = system: SR leukemia
# SK-MEL-2 melanoma = system: SK-MEL-2 melanoma
# 786-0 renal = system: 786-0 renal
# MCF7 breast = system: MCF7 breast
# MDA-MB-231 breast = system: MDA-MB-231 breast
# SK-MEL-28 melanoma = system: SK-MEL-28 melanoma
# OVCAR-4 ovarian = system: OVCAR-4 ovarian
# HOP-92 NSCLC = system: HOP-92 NSCLC
# SW-620 colon = system: SW-620 colon
# EKVX NSCLC = system: EKVX NSCLC
# KM12 colon = system: KM12 colon
# U251 CNS = system: U251 CNS
# SF-268 CNS = system: SF-268 CNS
# MDA-MB-435 = system: MDA-MB-435
# ACHN renal = system: ACHN renal
# SF-539 CNS = system: SF-539 CNS
# IGROV1 ovarian = system: IGROV1 ovarian
# OVCAR-3 ovarian = system: OVCAR-3 ovarian
# RPMI-8226 leukemia = system: RPMI-8226 leukemia
# SK-MEL-5 melanoma = system: SK-MEL-5 melanoma
# NCI-H460 lung = system: NCI-H460 lung
# HOP-62 NSCLC = system: HOP-62 NSCLC
# SN12C renal = system: SN12C renal
# HCT-116 colon = system: HCT-116 colon
# K-562 leukemia = system: K-562 leukemia
# T-47D breast = system: T-47D breast
# MALME-3M melanoma = system: MALME-3M melanoma
# SNB-75 CNS = system: SNB-75 CNS
# OVCAR-8 ovarian = system: OVCAR-8 ovarian
# TK-10 renal = system: TK-10 renal
# HCT-15 colon = system: HCT-15 colon
# SF-295 CNS = system: SF-295 CNS
# M14 melanoma = system: M14 melanoma
# SNB-19 CNS = system: SNB-19 CNS
# OVCAR-5 ovarian = system: OVCAR-5 ovarian
# LOX IMVI melanoma = system: LOX IMVI melanoma
# A549 NSCLC = system: A549 NSCLC
# COLO 205 colon = system: COLO 205 colon
# UACC-62 melanoma = system: UACC-62 melanoma
# UO-31 renal = system: UO-31 renal
# A498 renal = system: A498 renal
# UACC-257 melanoma = system: UACC-257 melanoma
# SK-OV-3 ovarian = system: SK-OV-3 ovarian
# MDA-N = system: MDA-N
# NCI/ADR-RES ovarian = system: NCI/ADR-RES ovarian
# NCI-H226 lung = system: NCI-H226 lung
# CAKI-1 renal = system: CAKI-1 renal
# NCI-H23 lung = system: NCI-H23 lung
# NCI-H522 lung = system: NCI-H522 lung
# RXF 393 renal = system: RXF 393 renal
# DU-145 prostate = system: DU-145 prostate
# BT-549 breast = system: BT-549 breast
# HT29 colon = system: HT29 colon
# HS 578T breast = system: HS 578T breast
# HCC-2998 colon = system: HCC-2998 colon
# CCRF-CEM leukemia = system: CCRF-CEM leukemia
smiles,measurement,setting,value
Oc1ccc(C(O)C2CCCCN2)cc1O (stereo not drawn),TGI,PC-3 prostate,> 100 µM
same,TGI,SR leukemia,> 100 µM
same,TGI,SK-MEL-2 melanoma,> 100 µM
same,TGI,786-0 renal,35.2 µM
same,TGI,MCF7 breast,> 100 µM
same,TGI,MDA-MB-231 breast,> 100 µM
same,TGI,SK-MEL-28 melanoma,> 100 µM
same,TGI,OVCAR-4 ovarian,> 100 µM
same,TGI,HOP-92 NSCLC,> 100 µM
same,TGI,SW-620 colon,> 100 µM
same,TGI,EKVX NSCLC,> 100 µM
same,TGI,KM12 colon,> 100 µM
same,TGI,U251 CNS,> 100 µM
same,TGI,SF-268 CNS,> 100 µM
same,TGI,MDA-MB-435,> 100 µM
same,TGI,ACHN renal,> 100 µM
same,TGI,SF-539 CNS,> 100 µM
same,TGI,IGROV1 ovarian,> 100 µM
same,TGI,OVCAR-3 ovarian,> 100 µM
same,TGI,RPMI-8226 leukemia,> 100 µM
same,TGI,SK-MEL-5 melanoma,> 100 µM
same,TGI,NCI-H460 lung,> 100 µM
same,TGI,HOP-62 NSCLC,> 100 µM
same,TGI,SN12C renal,> 100 µM
same,TGI,HCT-116 colon,> 100 µM
same,TGI,K-562 leukemia,> 100 µM
same,TGI,T-47D breast,54.3 µM
same,TGI,MALME-3M melanoma,> 100 µM
same,TGI,SNB-75 CNS,> 100 µM
same,TGI,OVCAR-8 ovarian,> 100 µM
same,TGI,TK-10 renal,> 100 µM
same,TGI,HCT-15 colon,> 100 µM
same,TGI,SF-295 CNS,> 100 µM
same,TGI,M14 melanoma,> 100 µM
same,TGI,SNB-19 CNS,> 100 µM
same,TGI,OVCAR-5 ovarian,> 100 µM
same,TGI,LOX IMVI melanoma,65.5 µM
same,TGI,A549 NSCLC,> 100 µM
same,TGI,COLO 205 colon,> 100 µM
same,TGI,UACC-62 melanoma,> 100 µM
same,TGI,UO-31 renal,> 100 µM
same,TGI,A498 renal,> 100 µM
same,TGI,UACC-257 melanoma,> 100 µM
same,TGI,SK-OV-3 ovarian,> 100 µM
same,TGI,MDA-N,> 100 µM
same,TGI,NCI/ADR-RES ovarian,> 100 µM
same,TGI,NCI-H226 lung,> 100 µM
same,TGI,CAKI-1 renal,> 100 µM
same,TGI,NCI-H23 lung,> 100 µM
same,TGI,NCI-H522 lung,> 100 µM
same,TGI,RXF 393 renal,> 100 µM
same,TGI,DU-145 prostate,> 100 µM
same,TGI,BT-549 breast,> 100 µM
same,TGI,HT29 colon,> 100 µM
same,TGI,HS 578T breast,> 100 µM
C/C(=N\Nc1nc2ccccc2s1)c1ccncn1,TGI,PC-3 prostate,> 43 µM
same,TGI,SR leukemia,> 100 µM
same,TGI,HCC-2998 colon,> 41.9 µM
same,TGI,SK-MEL-2 melanoma,31.8 µM
same,TGI,786-0 renal,> 72.4 µM
same,TGI,MCF7 breast,> 100 µM
same,TGI,MDA-MB-231 breast,> 46.9 µM
same,TGI,SK-MEL-28 melanoma,> 100 µM
same,TGI,OVCAR-4 ovarian,42.4 µM
same,TGI,HOP-92 NSCLC,> 30.1 µM
same,TGI,SW-620 colon,> 100 µM
same,TGI,EKVX NSCLC,10.2 µM
same,TGI,KM12 colon,16.6 µM
same,TGI,CCRF-CEM leukemia,> 100 µM
same,TGI,U251 CNS,> 100 µM
same,TGI,SF-268 CNS,9.56 µM
same,TGI,MDA-MB-435,> 100 µM
same,TGI,ACHN renal,11.8 µM
same,TGI,SF-539 CNS,35.9 µM
same,TGI,IGROV1 ovarian,4.39 µM
same,TGI,RPMI-8226 leukemia,> 26 µM
same,TGI,SK-MEL-5 melanoma,7.08 µM
same,TGI,NCI-H460 lung,14.9 µM
same,TGI,HOP-62 NSCLC,> 36.3 µM
same,TGI,SN12C renal,18 µM
same,TGI,HCT-116 colon,16.3 µM
same,TGI,T-47D breast,> 100 µM
same,TGI,MALME-3M melanoma,20.3 µM
same,TGI,SNB-75 CNS,24.4 µM
same,TGI,OVCAR-8 ovarian,1.03 µM
same,TGI,HCT-15 colon,15.9 µM
same,TGI,SF-295 CNS,20.5 µM
same,TGI,M14 melanoma,14.4 µM
same,TGI,SNB-19 CNS,> 28.4 µM
same,TGI,OVCAR-5 ovarian,> 100 µM
same,TGI,A549 NSCLC,> 35 µM
same,TGI,COLO 205 colon,11.1 µM
same,TGI,UACC-62 melanoma,> 26.5 µM
same,TGI,UO-31 renal,10.2 µM
same,TGI,A498 renal,> 100 µM
same,TGI,UACC-257 melanoma,> 100 µM
same,TGI,SK-OV-3 ovarian,> 32.1 µM
same,TGI,MDA-N,> 100 µM
same,TGI,NCI/ADR-RES ovarian,1.67 µM
same,TGI,NCI-H226 lung,1.07 µM
same,TGI,CAKI-1 renal,12.2 µM
same,TGI,NCI-H23 lung,5.55 µM
same,TGI,NCI-H522 lung,2.05 µM
same,TGI,RXF 393 renal,24.7 µM
same,TGI,DU-145 prostate,> 66.1 µM
same,TGI,BT-549 breast,21.4 µM
same,TGI,HT29 colon,14 µM
same,TGI,HS 578T breast,26.2 µM
